Test results published in BigSolDB 2.1.

CC(=O)c1c(C)c([N+](=O)[O-])c(C(C)(C)C)c([N+](=O)[O-])c1C
solubility (mole fraction)
Conditions | 278.15 K | 283.15 K | 288.15 K | 293.15 K | 298.15 K | 303.15 K | 308.15 K | 313.15 K | 318.15 K
in DMAc | 0.113 | 0.129 | 0.147 | 0.165 | 0.185 | 0.206 | 0.228 | 0.252 | 0.278
in DMF | 0.0732 | 0.0856 | 0.0993 | 0.115 | 0.131 | 0.149 | 0.169 | 0.191 | 0.215
in THF | 0.148 | 0.165 | 0.183 | 0.202 | 0.221 | 0.243 | 0.266 | 0.288 | 0.313
in acetonitrile | 0.0141 | 0.0174 | 0.0213 | 0.0259 | 0.0314 | 0.0379 | 0.0455 | 0.0545 | 0.0644
in cyclohexane | 0.00275 | 0.00348 | 0.00439 | 0.00547 | 0.0068 | 0.00853 | 0.0104 | 0.0127 | 0.0153
in ethanol | 0.00201 | 0.00251 | 0.00304 | 0.00364 | 0.00435 | 0.00521 | 0.00622 | 0.00743 | 0.00869
in ethyl acetate | 0.065 | 0.0744 | 0.0846 | 0.0959 | 0.108 | 0.121 | 0.136 | 0.151 | 0.168
in isopropanol | 0.00159 | 0.002 | 0.00259 | 0.00332 | 0.00414 | 0.00521 | 0.00651 | 0.008 | 0.00982
in methanol | 0.00127 | 0.00155 | 0.00188 | 0.00227 | 0.00272 | 0.00324 | 0.00385 | 0.00455 | 0.00533
in n-butanol | 0.00299 | 0.0037 | 0.00455 | 0.00557 | 0.00679 | 0.00823 | 0.00993 | 0.0119 | 0.0141
in n-heptane | 0.00184 | 0.00228 | 0.00281 | 0.00344 | 0.00419 | 0.00508 | 0.00613 | 0.00737 | 0.00878
in n-hexane | 0.00164 | 0.00202 | 0.00248 | 0.00302 | 0.00365 | 0.0044 | 0.00527 | 0.00629 | 0.00744
